# In US9139652B2, “Method for increasing M1 macrophages in a patient” (TRANSGENE SA, priority 2011, dated 2015):
# Where two headings read alike, the source gives them in different places.
# Columns and labels:
# [1] = tested on: CD86^bright SSC^low macrophage population; test: Human macrophage differentiation assay: CD86^bright SSC^low population by IC/FC; format: cell-based; conditions: day-6 macrophages, GW2580 vs no treatment
# Method: Upper panels: Dot plots showing CD86 staining (x-axis) and side scatter (SSC, y-axis) of macrophages from donor 3 differentiated for 6 days in the presence of H27K15 (left) or negative control rituximab (right). A gate was set on the CD86^bright SSC^low cell population induced by H27K15. Lower panel: Percentages of CD86^bright SSC^low cells with the test compounds at 10, 1 or 0.1 μg/ml* were compared with those in the corresponding negative controls: H27K15 vs rituximab, H27K15-derived F(ab′)2 vs rituximab-derived F(ab′)2, GW2580 vs no treatment. Percentages of increase in the CD86^bright SSC^low cell population were calculated as: 100×percentage of CD86^bright SSC^low cells with test compound/percentage of CD86^bright SSC^low cells with control. Shown are the mean percentages of increase in the CD86^bright SSC^low cell population from the 3 blood donors. *except for F(ab′)2: 6.6; 0.6; and 0.06 μg/ml.
# (§1) Buffy coats were provided by the Etablissement Francais du Sang (EFS, Strasbourg). Peripheral blood mononucleated cells (PBMC) were obtained by centrifugation on a ficoll gradient. […] Cells were detached from the plastic and pools of triplicates were analyzed by IC/FC (immunocytochemistry/flow cytometry) for cell sizes and expression of FcγR and CD86. Cytokines and chemokines were quantified in the culture supernatants by multiplex (Bioplex, Bio-Rad) or by ELISA. […]
# [2] = tested on: IL-12p70 and IL-10 secretion by macrophages; test: Human macrophage differentiation assay: IL-12p70 and IL-10 in day-6 culture supernatants; format: cell-based; conditions: for IL-12p70 secretion: detection limit 1 pg/ml
# Method: IL-12p70 and IL-10 were titrated in the culture supernatants from day-6 macrophages differentiated in the presence of mAb H27K15 (1 μg/ml), GW2580 (1 μM) or their respective negative controls rituximab or no treatment. Left panel: IL-12p70 and IL-10 levels (pg/ml) in macrophage cultures from 3 blood donors. Right: IL-12p70 (pg/ml)/IL-10 (pg/ml) ratios were calculated for each blood donor and each culture condition. In samples where IL-12p70 was undetectable (below the detection limit of 1 pg/m)l, its level was arbitrarily set at 1 pg/ml for the calculation of IL-12p70/IL-10 ratios.
# (§2) Buffy coats were provided by the Etablissement Francais du Sang (EFS, Strasbourg). Peripheral blood mononucleated cells (PBMC) were obtained by centrifugation on a ficoll gradient. Monocytes were purified by immunomagnetic cell sorting, using CD14-antibody-coated beads (Miltenyii). Enriched monocyte suspensions were more than 95% pure. Monocytes were differentiated for 6 days in 48-well plates (3×10^5 cells/well) in RPMI-Glutamax™ medium supplemented with 10% heat inactivated fetal calf serum and 1% tri-antibiotic mixture (penicillin, streptomycin, neomycin). GM-CSF (10 ng/ml) was added in the cell culture medium from day 0 to day 3. H27K15, other antibodies or internal control GW2580 (LC Labs) were added at day 0. On day 3 post-isolation, monocytes were washed with PBS and further cultivated in medium supplemented with CSF-1 (10 ng/ml) and GM-CSF (2 ng/ml), in the presence or absence of antibodies or GW2580. On day 6, supernatants were collected and stored at −20° C. Cells were detached from the plastic and pools of triplicates were analyzed by IC/FC (immunocytochemistry/flow cytometry) for cell sizes and expression of FcγR and CD86. Cytokines and chemokines were quantified in the culture supernatants by multiplex (Bioplex, Bio-Rad) or by ELISA.
# To study whether mAb H27K15 could affect macrophage differentiation, purified CD14^+ monocytes were cultured for […] in the presence of GM-CSF and CSF-1, known to induce respectively M1- and M2-type macrophages (Akagawa K. S., 2002; Verreck F. A. et al., 2004). Three different doses of mab H27K15 or isotype control rituximab (0.1; 1 or 10 μg/ml) were added to the culture medium at the beginning of the culture and again 3 days later. F(ab′)2 generated from H27K15 or from rituximab were tested in parallel at equivalent molar concentrations. F(ab′)2 generated from mAb 1.2 SM (WO 2009/026303) was tested for comparison with the F(ab′)2 derived from H27K15 or rituximab. The known blocking mAb to human CD115, 2-4A5, or the non-blocking mAb 9-4D2 (Sherr C. J. et al., 1989) were assayed and compared with isotype control rat IgG1. […]
# [3] = tested on: MMP-9 production by monocytes cultured with GM-CSF and CSF-1; test: MMP-9 ELISA in day-6 supernatants of monocytes cultured with GM-CSF and CSF-1; format: cell-based, human; conditions: GW2580, effect in 2 out of 3 donors
# Method: FIG. 6. Monocytes isolated from 3 different blood donors were differentiated for 6 days in the presence of GM-CSF and CSF-1, with or without mAb H27K15, Rituximab or GW2580. MAb H27K15 or Rituximab (0.1, 1 or 10 μg/ml) or equimolar concentrations of F(ab)′2 derived from both mAbs were added to the cultures. MMP-9 was titrated by ELISA (R&D Systems) in day-6 culture supernatants.
# (§3) Buffy coats were provided by the Etablissement Francais du Sang (EFS, Strasbourg). Peripheral blood mononucleated cells (PBMC) were obtained by centrifugation on a ficoll gradient. Monocytes were purified by immunomagnetic cell sorting, using CD14-antibody-coated beads (Miltenyii). Enriched monocyte suspensions were more than 95% pure. […] Cells were detached from the plastic and pools of triplicates were analyzed by IC/FC (immunocytochemistry/flow cytometry) for cell sizes and expression of FcγR and CD86. Cytokines and chemokines were quantified in the culture supernatants by multiplex (Bioplex, Bio-Rad) or by ELISA.
# CD14^+ monocytes from 3 different donors were allowed to differentiate in the presence of both GM-CSF and CSF-1, known to induce macrophage differentiation towards respectively the M1- and M2-types. […] After 6 days of culture, MMP-9 concentrations were measured in the supernatants by ELISA (FIG. 6). […]
# [4] = tested on: CD163-positive M2-type macrophages; test: Flow cytometry of CD163-positive cells in day-6 macrophages; format: cell-based, human; conditions: 3 donors
# Method: FIG. 7 Cells obtained after 6-day culture with GM-CSF and CSF-1 were harvested and incubated for 20 min at 4° C. with PBS containing human IgG Fc fragments to saturate Fc receptors. Fluorochrome-conjugated mAbs (anti-CD14-PerCP-Cy5.5, anti-CD163-PE, anti-CD206-APC, anti-CD1a-FITC, BD Biosciences) were then incubated with each sample for 20 min at 4° C. FCM analysis was performed using a FACS LSR-II (BD biosciences) with the DIVA software. Data from 3 different blood donors are presented.
# as §3, with “ELISA. […]” for “ELISA.”
# The surface expression of CD163 was analyzed by flow cytometry in day-6 macrophages derived from human monocytes cultured with GM-CSF and CSF-1. […]
# [5] = tested on: differentiating macrophages; test: Human macrophage differentiation assay: cytotoxicity / cell counts at day 6; format: cell-based
# Source text: Cells were counted following a 6-day culture of monocytes with GM-CSF and CSF-1, in the presence or absence of anti-CD115 mAbs or F(ab′)2 or with GW2580. Controls included cultures treated with rituximab or rituximab F(ab′)2, or without any added compound.
# as §2, with “Enriched monocyte suspensions were more than 95% pure.” left out
# Three different doses of mab H27K15 or isotype control rituximab (0.1; 1 or 10 μg/ml) were added to the culture medium at the beginning of the culture and again 3 days later. F(ab′)2 generated from H27K15 or from rituximab were tested in parallel at equivalent molar concentrations.
# Cell viability was analyzed at day 6 by counting 5 microscope fields in each well of the plate (one in the center of the well and four fields at mid-distance between the center and the side of the well).
# [6] = tested on: MCP-1/CCL2 secretion by macrophages; test: Human macrophage differentiation assay: MCP-1 in day-6 culture supernatants; format: cell-based; conditions: day-6 macrophage supernatants, GW2580 1 μM vs no treatment
# Method: MCP-1 and IL-6 were titrated in the culture supernatants from day-6 macrophages differentiated in the presence of mAb H27K15 (1 μg/ml), GW2580 (1 μM) or their respective negative controls rituximab or no treatment. Percentages of reduction in MCP-1 (upper panel) or in IL-6 production (lower panel) were calculated for the 3 blood donors as: 100−[100×cytokine concentration with test compound (pg/ml)/cytokine concentration with control (pg/ml)].
# as §2, with “H27K15, other antibodies or internal control GW2580 (LC Labs) were added at day 0. On day 3 post-isolation, monocytes were washed with PBS and further cultivated in medium supplemented with CSF-1 (10 ng/ml) and GM-CSF (2 ng/ml), in the presence or absence of antibodies or GW2580. On day 6, supernatants were collected and stored at −20° C.” left out, “ELISA. […]” for “ELISA.”
# [7] = tested on: CD64 (FcγRI) expression in human macrophages; test: Human macrophage differentiation assay: surface CD64 expression by IC/FC; format: cell-based; conditions: day-6 macrophages, GW2580 vs no treatment
# Method: Macrophages obtained following a 6-day culture of monocytes from 3 different blood donors with GM-CSF and CSF-1 were analyzed by IC/FC for surface expression of CD64. Upper panels: CD64 staining in cultures from donor 1 treated with monoclonal antibody H27K15 (left, bold line) or with GW2580 (right, bold line) or their respective negative controls rituximab (left, thin line) or no treatment (right, thin line). Lower panel: Medians of fluorescence intensities in macrophage cultures treated with test compounds at 10, 1 or 0.1 μg/ml* were compared with those in the corresponding negative controls: H27K15 vs rituximab, H27K15-derived F(ab′)2 vs rituximab-derived F(ab′)2, mAbs 2-4A5 or 9-4D2 vs rat IgG1, GW2580 vs no treatment. Percentages of reduction in CD64 expression were calculated as: 100−[100×Median fluorescence intensity with test compound/Median fluorescence intensity with control]. […]
# as §1, with “Strasbourg).” for “Strasbourg). Peripheral blood mononucleated cells (PBMC) were obtained by centrifugation on a ficoll gradient.”
compound,measurement,setting,value
COc1ccc(COc2ccc(Cc3cnc(N)nc3N)cc2OC)cc1 [GW2580],Induction of CD86^bright SSC^low cell sub-population,[1],had appeared
same,IL-10 production,[2]; GW2580 1 μM,inhibition of IL-10 production
same,IL-12p70/IL-10 ratios,[2]; GW2580 1 μM vs no treatment,increased
same,IL-12p70 secretion,[2]; GW2580 1 μM,not detectable
same,MMP-9 production,[3],dose-dependent decrease
same,Differentiation of the CD163+ macrophage population (CD163 expression),[4],had the same effect in only ⅔ donors
same,Microscopical observation of day-6 cultures (cytotoxicity),"[5]; 1 μM, all blood donors, debris and less density of cells",relative cytotoxicity
same,Macrophage number remaining at day 6 compared with untreated cultures,"[5]; GW2580 1 μM, cell counts in 5 microscope fields (FIG. 1)",approximately 70%
same,Suppression of MCP-1 production,[6],as efficacious as H27K15
same,Surface expression of CD64,[7],drastically reduced
"Rituximab F(ab′)2: F(ab′)2 produced by pepsine digestion of rituximab, negative control",Microscopical observation of day-6 cultures (cytotoxicity),"[5]; compared with untreated cells, independently of the blood donor, monocytes cultured with GM-CSF and CSF-1",no obvious differences
"Rituximab: human IgG1 isotype control, obtained from Roche",IL-12p70 secretion,"[2]; 3 blood donors, mAb 1 μg/ml",did not produce any detectable IL-12p70
same,Microscopical observation of day-6 cultures (cytotoxicity),[5],no obvious differences
